Experiments:
Assay type in all cases: cell-based
LXFA 677 = assay: Clonogenic assay, LXFA 677; conditions: Homo sapiens, Lung, non-small cell, Adenocarcinoma, soft agar, read-out: IC50 (colony formation)
Protocol: (§1) The anticancer activity of (R)-2-amino-7-[2-(6-methoxy-pyridin-2-yl)-phenyl]-4-methyl-7,8-dihydro-6H-pyrido[4,3-d]pyrimidin-5-one is evaluated in 30 human tumor xenografts in vitro using a clonogenic assay. In this assay, human cells derived from cancer patients are evaluated for the capacity of (R)-2-amino-7-[2-(6-methoxy-pyridin-2-yl)-phenyl]-4-methyl-7,8-dihydro-6H-pyrido[4,3-d]pyrimidin-5-one to inhibit the formation of 3 dimensional colonies. […] The tumor xenografts which have never been cultured in cell culture plastic dishes are isolated from nude mice. Tumor cell suspensions are prepared and incubated in 24 well plates containing layers of soft agar. Under these conditions a special subpopulation of cells selectively grows to colonies. (R)-2-amino-7-[2-(6-methoxy-pyridin-2-yl)-phenyl]-4-methyl-7,8-dihydro-6H-pyrido[4,3-d]pyrimidin-5one is tested in 6 concentrations up to 1000 nM. The tumor test panel comprises 1 to 10 models of 12 different human tumor types, which were bladder cancer, colon, gastric, non small cell lung (adeno, squamous cell, and large cell), small cell lung, mammary, ovary, and prostate cancer, as well as leukemia, lymphoma, melanoma, and sarcoma. Antitumor effects are recorded as inhibition of colony formation in relation to untreated controls. […]

BT474 = assay: Cell proliferation assay, BT474 (breast); conditions: Homo sapiens, BT-474, 72 hours in presence of compound
Protocol: (§2) Seventeen cancer derived cell lines are used (GTL-16, N87, H1975, A549, H69, A2780, PC3, BT474, SKBR3, MCF-7, A375, MV4;11, K562, KM12L4A, H929, OPM-2 and KMS-11) to test the effect of (R)-2-amino-7-[2-(6-methoxy-pyridin-2-yl)-phenyl]-4-methyl-7,8-dihydro-6H-pyrido[4,3-d]pyrimidin-5-one. These cell lines cover the following 9 tumor types: Gastric, Lung, Ovarian, Prostate, Breast, Melanoma, Leukemia, Colon and Multiple myeloma. After division and medium change, cells from stock culture are seeded on cell plates and cultured for about 18 hours to allow cell growth and attachment before starting the assay. Then on the first day of the assay, (R)-2-amino-7-[2-(6-methoxy-pyridin-2-yl)-phenyl]-4-methyl-7,8-dihydro-6H-pyrido[4,3-d]pyrimidin-5-one is added to the medium at various concentrations. Cells are cultured up to 72 or 96 hours and cell proliferation is determined using commercially available cell proliferation kits.
(§3) Table 1 relates to the concentration in nM of (R)-2-amino-7-[2-(6-methoxy-pyridin-2-yl)-phenyl]-4-methyl-7,8-dihydro-6H-pyrido[4,3-d]pyrimidin-5-one which inhibits cell proliferation by 50% (IC50). […]

MV4:11 = assay: Cell proliferation assay, MV4:11 (leukemia); conditions: Homo sapiens, 72 hours in presence of compound
Protocol: as §2, §3

MAXF 1162 = assay: Clonogenic assay, MAXF 1162; conditions: Homo sapiens, Breast, invasive ductal carcinoma, soft agar, read-out: IC50 (colony formation)
Protocol: as §1

N87 = assay: Cell proliferation assay, N87 (gastric); conditions: 72 hours in presence of compound
Protocol: as §2, §3

GTL-16 = assay: Cell proliferation assay, GTL-16 (gastric); conditions: Homo sapiens, 72 hours in presence of compound
Protocol: as §2, §3

LXFA 526 = assay: Clonogenic assay, LXFA 526; conditions: Homo sapiens, Lung, non-small cell, Adenocarcinoma, soft agar, read-out: IC50 (colony formation)
Protocol: as §1

MAXF 713 = assay: Clonogenic assay, MAXF 713; conditions: Homo sapiens, Breast, Adenocarcinoma, soft agar, read-out: IC50 (colony formation)
Protocol: as §1

PRXF DU145 = assay: Clonogenic assay, PRXF DU145; conditions: Homo sapiens, DU-145, Prostate, Adenocarcinoma, soft agar, read-out: IC50 (colony formation)
Protocol: as §1

LXFA 1012 = assay: Clonogenic assay, LXFA 1012; conditions: Homo sapiens, Lung, non-small cell, Adenocarcinoma, soft agar, read-out: IC50 (colony formation)
Protocol: as §1

LEXF MOLT4 = assay: Clonogenic assay, LEXF MOLT4; conditions: Homo sapiens, MOLT-4, Leukemia, ALL, T lymphoblast, soft agar, read-out: IC50 (colony formation)
Protocol: as §1

SKBR3 = assay: Cell proliferation assay, SKBR3 (breast); conditions: Homo sapiens, SK-BR-3, 72 hours in presence of compound
Protocol: as §2, §3

CXF 243 = assay: Clonogenic assay, CXF 243; conditions: Homo sapiens, Colon, Adenocarcinoma, soft agar, read-out: IC50 (colony formation)
Protocol: as §1

LXFA 289 = assay: Clonogenic assay, LXFA 289; conditions: Homo sapiens, Lung, non-small cell, Adenocarcinoma, soft agar, read-out: IC50 (colony formation)
Protocol: as §1

SXF 463 = assay: Clonogenic assay, SXF 463; conditions: Homo sapiens, Sarcoma, Rhabdomyosarcoma, soft agar, read-out: IC50 (colony formation)
Protocol: as §1

PC3 = assay: Cell proliferation assay, PC3 (prostate); conditions: Homo sapiens, PC-3, 72 hours in presence of compound
Protocol: as §2, §3

MEXF 462 = assay: Clonogenic assay, MEXF 462; conditions: Homo sapiens, Amelanotic melanoma, soft agar, read-out: IC50 (colony formation)
Protocol: as §1

CXF 1103 = assay: Clonogenic assay, CXF 1103; conditions: Homo sapiens, CXF1103, Colon, Adenocarcinoma, soft agar, read-out: IC50 (colony formation)
Protocol: as §1

LXFS 660 = assay: Clonogenic assay, LXFS 660; conditions: Homo sapiens, Lung, small cell, Small cell lung carcinoma, soft agar, read-out: IC50 (colony formation)
Protocol: as §1

A375m = assay: Cell proliferation assay, A375m (melanoma); conditions: 72 hours in presence of compound
Protocol: as §2, §3

LEXF CCRFCEM = assay: Clonogenic assay, LEXF CCRFCEM; conditions: Homo sapiens, CCRF-CEM, Leukemia, ALL, T lymphoblast, soft agar, read-out: IC50 (colony formation)
Protocol: as §1

- IC50 (LXFA 677): 27 nM
- GI50 (BT474): 6 nM
- GI50 (MV4:11): 4 nM
- IC50 (MAXF 1162): 6 nM
- IC50 (LXFA 526): 36 nM
- IC50 (MAXF 713): > 1000 nM
- IC50 (PRXF DU145): 17 nM
- IC50 (LXFA 1012): > 1000 nM
- IC50 (LEXF MOLT4): 21 nM
- GI50 (SKBR3): 18 nM
- IC50 (CXF 243): 44 nM
- IC50 (LXFA 289): 639 nM
- IC50 (SXF 463): 5 nM
- GI50 (PC3): 16 nM
- IC50 (MEXF 462): 65 nM
- IC50 (CXF 1103): 27 nM
- IC50 (LXFS 660): 6 nM
- GI50 (A375m): 36 nM
- IC50 (LEXF CCRFCEM): 27 nM
Structure (SMILES): COc1cccc(-c2ccccc2[C@H]2Cc3nc(N)nc(C)c3C(=O)N2)n1 [(R)-2-amino-7-[2-(6-methoxy-pyridin-2-yl)-phenyl]-4-methyl-7,8-dihydro-6H-pyrido[4,3-d]pyrimidin-5-one]
- GI50 (N87): 12 nM
- GI50 (GTL-16): 18 nM
